Earlier results on one compound are cited in patent publication US20050113433A1, “Compositions of a phenyl acetic acid cyclooxygenase-2 selective inhibitor and a cholinergic agent for the treatment of reduced blood flow or trauma to the central nervous system” (Pharmacia Corporation, priority 2003, published 2005).

Molecules are shown by their SMILES.

For this series the following is noted: administered to subjects following stroke.

Take `C[N+](C)(C)CCOP(=O)(O)OP(=O)(O)OC[C@H]1O[C@@H](n2ccc(N)nc2=O)[C@H](O)[C@@H]1O` [citicoline]: the behavioral parameters result is reported as “improvement in behavioral parameters” and the infarction volume entry was “decrease in infarction volume”.
